Laboratory results from patent US20120152149A1, “USE OF 1,3-DIOLS AS BIOCIDES” (BASF SE, priority 2009, published 2012).
Read-outs that look alike come from different tables or passages of the source.

Key:
Assay type in all cases: cell-based
P. vulgaris NCIMB 4175 = experiment: Microstatic activity, MIC in tryptone soy broth; conditions: Proteus vulgaris, NCIMB4175, 30° C., 48 hours
Description: (§1) For this, in each case a 40 percent strength by weight solution of a diol in propylene glycol was prepared at 60° C. This solution was diluted with a double-strength soy solution (double-strength tryptone soy broth) as nutrient medium in the volume ratio 1:1. Further dilution with soy solution produced solutions with the following concentrations: 400 000 ppm (40%), 200 000 ppm (20%), 100 000 ppm (10%), 50 000 ppm (5%), 25 000 ppm (2.5%), 12 500 ppm (1.25%), 6250 ppm (0.625%), 3125 ppm (0.3125%). Pure soy solution was used as negative control. The positive control used was a solution of 5 ml of soy solution which has been treated with 0.1 ml of the respective microorganism. The test solutions consisted of 5 ml of the above-described soy solutions of the diols in the particular concentration which have been mixed with 0.1 ml of the respective microorganism. The samples and controls were incubated in the case of the bacteria at 30° C. for 48 hours, and in the case of fungi over 5 days at 25° C. In each case, the MIC (Minimum Inhibitory Concentration) value was determined. This value indicates the minimum concentration above which the growth of the microorganisms was visibly hindered compared to the corresponding sample without addition of the diol. […] For example, this was evident from the occurrence of clouding or visible growth of the microorganism. […] The MIC value stated is a range between the next higher concentration of a positive test and the same and/or lower concentration of a first negative test.

S. aureus NCIMB 9578 = experiment: Microstatic activity, MIC in tryptone soy broth; conditions: Staphylococcus aureus, NCIMB9578, 30° C., 48 hours
Description: as §1

A. niger IMI 149007 = experiment: Microstatic activity, MIC in tryptone soy broth; conditions: Aspergillus niger, IMI149007, 120 h, 25° C., 5 days
Description: as §1

E. coli NCIMB 8545 = experiment: Microstatic activity, MIC in tryptone soy broth; conditions: Escherichia coli, NCIMB8545, 30° C., 48 hours
Description: as §1

[1] = test system: P. aeruginosa NCIMB 10421; experiment: Microstatic activity, MIC in tryptone soy broth; conditions: Pseudomonas aeruginosa, NCIMB10421, 30° C., 48 hours
Description: as §1

C. albicans NCPF 3179 = experiment: Microstatic activity, MIC in tryptone soy broth; conditions: 25° C., 5 days; for MIC: Candida albicans, NCPF3179, 120 h
Description: as §1

[2] = test system: series of tested microorganisms (bacteria and fungi); experiment: Microstatic activity, highest MIC from the series of tested microorganisms; conditions: highest measured MIC from the series of tested microorganisms
Description: The following microorganisms were used;to test the biocidal effect against various bacteria and fungi: In each case, the MIC (Minimum Inhibitory Concentration) value was determined. This value indicates the minimum concentration above which the growth of the microorganisms was visibly hindered compared to the corresponding sample without addition of the diol. The MIC value stated is a range between the next higher concentration of a positive test and the same and/or lower concentration of a first negative test. In the last line of each of the tables below, a “maximum” value is listed. This value indicates the highest measured MIC value in each case from the series of tested microorganisms.

S. aureus ATCC 6538 = experiment: Preservation stress test, example formulation 2 (roll-on deodorant formulation); conditions: 1% active substance
Description: (§2) Preservation stress tests (PSTs) were carried out in order to determine the preserving activity of the diols. In the preservation stress test, this is simulated through artificial loadings with microorganisms. These can either be inoculated as mixed population or individually in mixtures independent of one another. The inoculated product samples are incubated under defined conditions and, after defined times, samples are taken in order to determine the germ loading. In the case of adequate preservation, the number of microorganisms should, depending on the type, either decrease or remain constant in order to satisfy the requirements specified, e.g. in Ph. Eur. 6.0. To investigate the preserving effect of the diols, application-typical amounts of the diols were incorporated into example formulations. […] [table] These example formulations were used to prepare various mixtures which each comprised 1% active substance or comprised water instead of the active substance as placebo mixtures. These mixtures were in each case inoculated with the test germs such that a germ loading of 10^5-10^6 CFU/g was present in the test mixture. The bacteria were either used individually for the inoculation or as a mixed culture. To determine the starting germ count, immediately after inoculation, an aliquot was taken, diluted in dilution medium (phosphate buffer, 0.07 molar pH 7.4 (+/−0.2), with 1% Tween 80+0.3% soya lecithin), and the surviving germ count was determined in the dilution stages 10^−1 to 10^−3. The inoculated product samples then incubated for a total of 28 d at 20-25° C. After 2 d, 7 d, 14 d and after 28 d, aliquots were taken and diluted in dilution medium (phosphate buffer, 0.07 molar pH 7.4 (+/−0.2), with 1% Tween 80+0.3% soya lecithin). The surviving germ counts were determined in the dilution stages 10^−1 to 10^−4. The reference point taken for determining the reduction in germ count was the respective initial value of the sample. The results were given as logarithmic reductions.

E. coli ATCC 10536 = experiment: as above; conditions: 1% active substance
Description: as §2

A. niger ATCC 16404 = experiment: as above; conditions: 1% active substance
Description: as §2

C. albicans ATCC 10231 = experiment: as above; conditions: 1% active substance
Description: as §2

P. aeruginosa ATCC 15442 = experiment: as above; conditions: 1% active substance
Description: as §2

[3] = lower limit of MIC range, read-out: MIC value (ppm of diol), from
[4] = upper limit of MIC range, read-out: MIC value (ppm of diol), to
[5] = lower limit, read-out: Maximum MIC value (ppm of diol), from

| Structure (SMILES) | MIC (P. vulgaris NCIMB 4175; [3]) | MIC (P. vulgaris NCIMB 4175; [4]) | MIC (S. aureus NCIMB 9578; [3]) | MIC (S. aureus NCIMB 9578; [4]) | MIC (A. niger IMI 149007; [3]) | MIC (A. niger IMI 149007; [4]) | MIC (E. coli NCIMB 8545; [3]) | MIC (E. coli NCIMB 8545; [4]) | MIC [1, 3] | MIC (C. albicans NCPF 3179; [4]) | MIC [2, 5] | Microbicidal activity given as logarithmic reduction in germ count (S. aureus ATCC 6538; 48 h) | Microbicidal activity given as logarithmic reduction in germ count (S. aureus ATCC 6538; 7 d) | Microbicidal activity given as logarithmic reduction in germ count (S. aureus ATCC 6538; 14 d) | Microbicidal activity given as logarithmic reduction in germ count (E. coli ATCC 10536; 48 h) | Microbicidal activity given as logarithmic reduction in germ count (E. coli ATCC 10536; 7 d) | Microbicidal activity given as logarithmic reduction in germ count (E. coli ATCC 10536; 14 d) | Microbicidal activity given as logarithmic reduction in germ count (A. niger ATCC 16404; 48 h) | Microbicidal activity given as logarithmic reduction in germ count (A. niger ATCC 16404; 7 d) | Microbicidal activity given as logarithmic reduction in germ count (A. niger ATCC 16404; 14 d) | also measured |
| --- | --- | --- | --- | --- | --- | --- | --- | --- | --- | --- | --- | --- | --- | --- | --- | --- | --- | --- | --- | --- | --- |
| CCCC(O)CO (centres unmarked) [1,2-Pentanediol, 1,2-pentanediol, reference compound] | > 25 mg/mL | ≤ 50 mg/mL | > 25 mg/mL | ≤ 50 mg/mL | > 12.5 mg/mL | ≤ 25 mg/mL | > 25 mg/mL | ≤ 50 mg/mL | > 12.5 mg/mL | ≤ 50 mg/mL | > 25 mg/mL | 1 log. Red. | 1 log. Red. | 5 log. Red. | 0 log. Red. | 1 log. Red. | 1 log. Red. | 0 log. Red. | 0 log. Red. | 0 log. Red. | MIC [1, 4]: ≤ 25 mg/mL; MIC (C. albicans NCPF 3179; [3]): > 25 mg/mL; MIC ([2]; upper limit, read-out: Maximum MIC value (ppm of diol), to): ≤ 50 mg/mL; Microbicidal activity given as logarithmic reduction in germ count (C. albicans ATCC 10231; 48 h): 0 log. Red.; Microbicidal activity given as logarithmic reduction in germ count (C. albicans ATCC 10231; 7 d): 0 log. Red.; Microbicidal activity given as logarithmic reduction in germ count (C. albicans ATCC 10231; 14 d): 0 log. Red.; Microbicidal activity given as logarithmic reduction in germ count (P. aeruginosa ATCC 15442; 48 h): 0 log. Red.; Microbicidal activity given as logarithmic reduction in germ count (P. aeruginosa ATCC 15442; 7 d): 3 log. Red.; Microbicidal activity given as logarithmic reduction in germ count (P. aeruginosa ATCC 15442; 14 d): 5 log. Red. |
| CCCCCCCCC(C)(CO)CO [OMPD, 2-octyl-2-methylpropane-1,3-diol] | > 50 mg/mL | ≤ 100 mg/mL | > 25 mg/mL | ≤ 50 mg/mL | > 3.12 mg/mL | ≤ 6.25 mg/mL | > 50 mg/mL | ≤ 100 mg/mL | > 100 mg/mL | ≤ 3.12 mg/mL | > 100 mg/mL | ≧3 log. Red. | 5 log. Red. | 5 log. Red. | 0 log. Red. | ≧3 log. Red. | 5 log. Red. | 0 log. Red. | 0 log. Red. | 0 log. Red. | MIC value (ppm of diol), from (C. albicans NCPF 3179; lower limit of MIC range): >0 ppm; Microbicidal activity given as logarithmic reduction in germ count (S. aureus ATCC 6538; 28 d): 5 log. Red.; Microbicidal activity given as logarithmic reduction in germ count (E. coli ATCC 10536; 28 d): 5 log. Red.; Microbicidal activity given as logarithmic reduction in germ count (C. albicans ATCC 10231; 48 h): 0 log. Red.; Microbicidal activity given as logarithmic reduction in germ count (C. albicans ATCC 10231; 7 d): 0 log. Red.; Microbicidal activity given as logarithmic reduction in germ count (C. albicans ATCC 10231; 14 d): 0 log. Red.; Microbicidal activity given as logarithmic reduction in germ count (P. aeruginosa ATCC 15442; 48 h): ≧3 log. Red.; Microbicidal activity given as logarithmic reduction in germ count (P. aeruginosa ATCC 15442; 7 d): 5 log. Red.; Microbicidal activity given as logarithmic reduction in germ count (P. aeruginosa ATCC 15442; 14 d): 5 log. Red.; Microbicidal activity given as logarithmic reduction in germ count (P. aeruginosa ATCC 15442; 28 d): 5 log. Red. |
| CCCCCC(CO)(CO)CCC [PPPD, 2-pentyl-2-propylpropane-1,3-diol] | > 25 mg/mL | ≤ 50 mg/mL | > 50 mg/mL | ≤ 100 mg/mL | > 6.25 mg/mL | ≤ 12.5 mg/mL | > 50 mg/mL | ≤ 100 mg/mL | > 100 mg/mL | ≤ 12.5 mg/mL | > 100 mg/mL | 5 log. Red. | 5 log. Red. | 5 log. Red. | ≧3 log. Red. | 5 log. Red. | 5 log. Red. | 0 log. Red. | 0 log. Red. | 0 log. Red. | MIC (C. albicans NCPF 3179; [3]): > 6.25 mg/mL; Microbicidal activity given as logarithmic reduction in germ count (S. aureus ATCC 6538; 28 d): 5 log. Red.; Microbicidal activity given as logarithmic reduction in germ count (E. coli ATCC 10536; 28 d): 5 log. Red.; Microbicidal activity given as logarithmic reduction in germ count (C. albicans ATCC 10231; 48 h): 0 log. Red.; Microbicidal activity given as logarithmic reduction in germ count (C. albicans ATCC 10231; 7 d): 0 log. Red.; Microbicidal activity given as logarithmic reduction in germ count (C. albicans ATCC 10231; 14 d): 0 log. Red.; Microbicidal activity given as logarithmic reduction in germ count (P. aeruginosa ATCC 15442; 48 h): 5 log. Red.; Microbicidal activity given as logarithmic reduction in germ count (P. aeruginosa ATCC 15442; 7 d): 5 log. Red.; Microbicidal activity given as logarithmic reduction in germ count (P. aeruginosa ATCC 15442; 14 d): 5 log. Red.; Microbicidal activity given as logarithmic reduction in germ count (P. aeruginosa ATCC 15442; 28 d): 5 log. Red. |
